From article PMC4697807, “Novel Zn^2+ Modulated GPR39 Receptor Agonists Do Not Drive Acute Insulin Secretion in Rodents” (PLoS ONE, 2015)

Assays:
GPR39 [1] = biological target: T1, GPR39 (Homo sapiens, UniProt O43194); experiment: IP1 assay (HTRF), HEK293s-hGPR39 cells; assay type: cell-based; set-up: Full length human (AF034633), rat (DM091294) and mouse (BC085285) GPR39; expressed in transfected cells; host or cells: HEK293s (ATCC CRL-1573), pIRESneo3 vector, selected clones; conditions: for Efficacy at 33 μM: AZ1395 100% reference
T1 sequence (O43194 1-453): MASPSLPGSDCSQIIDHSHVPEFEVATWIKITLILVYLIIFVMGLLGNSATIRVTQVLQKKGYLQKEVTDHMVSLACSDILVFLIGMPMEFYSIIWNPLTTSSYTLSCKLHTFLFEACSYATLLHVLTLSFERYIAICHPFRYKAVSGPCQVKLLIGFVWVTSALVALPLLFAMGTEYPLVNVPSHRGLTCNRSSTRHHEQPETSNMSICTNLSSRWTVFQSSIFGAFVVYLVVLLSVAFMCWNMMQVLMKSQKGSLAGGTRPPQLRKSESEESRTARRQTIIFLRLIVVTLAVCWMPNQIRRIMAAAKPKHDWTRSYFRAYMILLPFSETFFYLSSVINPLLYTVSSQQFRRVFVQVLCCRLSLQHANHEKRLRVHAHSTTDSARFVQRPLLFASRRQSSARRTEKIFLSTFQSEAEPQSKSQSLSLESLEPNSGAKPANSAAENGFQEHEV
Excerpt: (§1) Full length human (AF034633), rat (DM091294) and mouse (BC085285) GPR39 (GeneArt–Life Technologies, Carlsbad, CA) were subcloned into the pIRESneo3 vector (Clontech, Mountain View, CA). The resulting expression vectors hGPR39-, rGPR39- and mGPR39-pIRESneo3 were transfected into HEK293s cells (ATCC CRL-1573) using Lipofectamine 2000 (Life Technologies). Individual clones were isolated using flow cytometry with a FACSVantage SE DIVA (Becton Dickinson, Franklin Lakes, NJ) and clones were chosen based on responses to Zn^2+ measured in a cAMP assay (see below). […] HEK293s-derived cell lines were cultured at 37°C, 10% CO2 and 95% humidity in DMEM supplemented with 10% FBS and 600 μg/ml Geneticin (Life Technologies). The mouse pancreas epithelial cell line NIT-1 (ATCC CRL-2055) with endogenous expression of GPR39 was cultured at 37°C, 5% CO2, and 95% humidity in Ham´s F12 (Life Technologies) supplemented with 10% FBS.
IP1 assays were performed using IP-One Tb kits (CisBio). IP1 production was detected by HTRF as described above. Buffers and reagents were according to manufacturers’ protocols except LiCl concentrations in stimulation buffer which were 50 mM in assays employing HEK293s-hGPR39 cells and 20 mM in assays using NIT-1 cells. For assays using HEK293s-hGPR39 cells, 12,500 cells per well were dispensed into small-volume 384-well plates (Greiner) and IP1 production was stimulated in the presence of compounds for 30 min at 37 °C in a total volume of 20 μl. For assays using NIT-1 cells, 25,000 cells per well were seeded into poly-D-lysine coated 384-well plates (Becton-Dickinson) and cultured in Ham´s F12 medium with 10% FBS. After 48 h, cells were washed with stimulation buffer and IP1 production stimulated in the presence of compounds for 45 min at 37 °C in a total volume of 60 μl.
(§2) Concentration response data were fitted with a four parameter logistic fit using Eq 1, y=A+((B−A)/1+((C/x)^D))) (1) where A is no activation, B is full activation, C is the EC50 and D is the Hill slope.

GPR39 [2] = biological target: T1, GPR39; experiment: cAMP assay (HTRF), HEK293s-hGPR39 cells; assay type: cell-based; set-up: Full length human (AF034633), rat (DM091294) and mouse (BC085285) GPR39; expressed in transfected cells; host or cells: HEK293s (ATCC CRL-1573), pIRESneo3 vector, selected clones; conditions: for Efficacy at 33 μM: AZ1395 100% reference
Excerpt: as §1
Measurements of cAMP production were performed using homogeneous time resolved fluorescence (HTRF) cAMP dynamic kits (CisBio, Codolet, France). All buffers and reagents were according to manufacturer’s protocol. In short, 0.1 μl of compounds in DMSO were added to small-volume 384-well plates (Greiner, Frickenhausen, Germany). 12,000 (5 μl) cells in Hank’s balanced salt solution (HBSS) (Life Technologies) and 20 mM HEPES (pH7.4; Life Technologies) were added per well. The production of cAMP was stimulated for 75 min at 37°C by addition of 5 μl 3-isobutyl-1-methylxanthine (0.375 mM final concentration; Sigma-Aldrich, St Louis, MO) and ZnCl2 (0 to 30 μM; Sigma). The reaction was stopped by addition of 5 μl cAMP-d2 and 5 μl anti-cAMP cryptate. The cAMP production was detected by HTRF (λex = 340 nm, λem = 665 and 615 nm) using a Pherastar (BMG Labtech, Ortenberg, Germany).
as §2

[3] = Zn^2+ by itself, read-out: EC50
[4] = presence of 5 μM Zn^2+, read-out: pEC50 ± SD (converted)
[5] = absence (w/o) of Zn^2+, read-out: EC50
[6] = presence of 5 μM Zn^2+, read-out: EC50

[Zn+2] [Zn^2+]
pEC50 ± SD (GPR39 [1]; Zn^2+ by itself): (4.63 ± 0.08)
EC50 (GPR39 [1]; [3]): 24 µM
pEC50 ± SD (GPR39 [2]; Zn^2+ by itself): (4.92 ± 0.13)
EC50 (GPR39 [2]; [3]): 12 µM

N#Cc1ccc(OCCn2ccnc2)c(OCCn2ccnc2)c1 [AZ1395, 3,4-bis-(2-imidazol-1-ylethoxy)-benzonitrile]
EC50 (GPR39 [1]; absence (w/o) of Zn^2+, read-out: pEC50 ± SD (converted)): 2.88 µM
EC50 (GPR39 [1]; [4]): 0.0191 µM
Efficacy at 33 μM (GPR39 [2]; absence (w/o) of Zn^2+): 81%
EC50 (GPR39 [2]; [5]): > 33 µM
EC50 (GPR39 [2]; [6]): 0.49 µM

Cc1nc(-c2nc3c(c(=O)[nH]2)CN(C(=O)c2cccc(Cl)c2F)CC3)cs1 [AZ7914, 6-(3-chloro-2-fluoro-benzoyl)-2-(2-methylthiazol-4-yl)-3,5,7,8-tetrahydropyrido-[4,3-d]pyrimidin-4-one]
Efficacy at 33 μM (GPR39 [1]; absence (w/o) of Zn^2+): 45%
EC50 (GPR39 [1]; [5]): > 33 µM
EC50 (GPR39 [1]; [6]): 0.074 µM
Efficacy at 33 μM (GPR39 [2]; absence (w/o) of Zn^2+): 21%
EC50 (GPR39 [2]; [5]): > 33 µM
EC50 (GPR39 [2]; [4]): 2.29 µM

Cc1nc2c(C(=O)O)cnn2c(O)c1Cc1ccc(Cl)cc1 [AZ4237, 6-[(4-chlorophenyl)methyl]-7-hydroxy-5-methyl-pyrazolo[1,5-a]pyrimidine-3-carboxylic acid]
Efficacy at 33 μM (GPR39 [1]; absence (w/o) of Zn^2+): 66%
EC50 (GPR39 [1]; [5]): > 33 µM
EC50 (GPR39 [1]; [4]): 0.0339 µM
Efficacy at 33 μM (GPR39 [2]; absence (w/o) of Zn^2+): 49%
EC50 (GPR39 [2]; [5]): > 33 µM
EC50 (GPR39 [2]; [4]): 0.389 µM
